# Species on record: Rattus norvegicus
# Assay: DrugMatrix - Regimen: Daily Repeat
# Type: toxicity, organism-based, Sprague-Dawley
# Parameters: regimen Daily Repeat, gender Male, age 6-8 weeks
# Settings: in vivo, po, route oral GAVAGE, […]; for ABSOLUTE BASOPHIL / ABSOLUTE EOSINOPHIL / ABSOLUTE LYMPHOCYTE / ABSOLUTE MONOCYTE / ABSOLUTE SEGMENTED NEUTROPHIL / BASOPHIL / EOSINOPHIL / ERYTHROCYTE COUNT / HEMATOCRIT / HEMOGLOBIN / LEUKOCYTE COUNT / LYMPHOCYTE / MEAN CORPUSCULAR HEMOGLOBIN / MEAN CORPUSCULAR HEMOGLOBIN CONCENTRATION / MEAN CORPUSCULAR VOLUME / MONOCYTE / NEUTROPHIL / NUCLEATED RED BLOOD CELLS / PLATELET COUNT: tissue Blood; for ALANINE AMINOTRANSFERASE / ALBUMIN / ALKALINE PHOSPHATASE / ASPARTATE AMINOTRANSFERASE / BLOOD UREA NITROGEN / CARBON DIOXIDE / CHLORIDE / CHOLESTEROL / CREATINE PHOSPHOKINASE / CREATININE / GLUCOSE / LACTATE DEHYDROGENASE / LIPASE / PHOSPHORUS / POTASSIUM / SODIUM / TOTAL BILIRUBIN / TOTAL PROTEIN / URIC ACID: tissue Plasma
# [1] = 40 mg/kg, 72 h, dose level Low, time 3 day
# [2] = 40 mg/kg, 120 h, dose level Low, time 5 day
# [3] = 444 mg/kg, 72 h, dose level High, time 3 day
# [4] = 444 mg/kg, 120 h, dose level High, time 5 day
smiles,measurement,setting,value
COC(=O)c1ccccc1O [METHYL SALICYLATE],ABSOLUTE BASOPHIL,[1],0 CELLS/uL
same,ABSOLUTE EOSINOPHIL,[1],96.67 CELLS/uL
same,ABSOLUTE LYMPHOCYTE,[1],12979.67 CELLS/uL
same,ABSOLUTE MONOCYTE,[1],290.67 CELLS/uL
same,ABSOLUTE SEGMENTED NEUTROPHIL,[1],1366.33 CELLS/uL
same,BASOPHIL,[1],0%
same,EOSINOPHIL,[1],0.67%
same,ERYTHROCYTE COUNT,[1],5.47 x10E6/uL
same,HEMATOCRIT,[1],34.27%
same,HEMOGLOBIN,[1],13.3 G/DL
same,LEUKOCYTE COUNT,[1],14.73 x10E3/uL
same,LYMPHOCYTE,[1],88%
same,MEAN CORPUSCULAR HEMOGLOBIN,[1],24.33 pg
same,MEAN CORPUSCULAR HEMOGLOBIN CONCENTRATION,[1],38.83 G/DL
same,MEAN CORPUSCULAR VOLUME,[1],62.67 fL
same,MONOCYTE,[1],2%
same,NEUTROPHIL,[1],9.33%
same,NUCLEATED RED BLOOD CELLS,[1],0 /100WBC
same,PLATELET COUNT,[1],1233.67 x10E3/uL
same,ALANINE AMINOTRANSFERASE,[1],69.33 u/L
same,ALBUMIN,[1],3.93 G/DL
same,ALKALINE PHOSPHATASE,[1],411 u/L
same,ASPARTATE AMINOTRANSFERASE,[1],90 u/L
same,BLOOD UREA NITROGEN,[1],10.67 mg/dL
same,CARBON DIOXIDE,[1],25 mmol/L
same,CHLORIDE,[1],101 MEQ/L
same,CHOLESTEROL,[1],68 mg/dL
same,CREATINE PHOSPHOKINASE,[1],276 u/L
same,CREATININE,[1],0.17 mg/dL
same,GLUCOSE,[1],149.67 mg/dL
same,LACTATE DEHYDROGENASE,[1],146.67 u/L
same,LIPASE,[1],12 u/L
same,PHOSPHORUS,[1],11.03 mg/dL
same,POTASSIUM,[1],6.55 MEQ/L
same,SODIUM,[1],142.03 MEQ/L
same,TOTAL BILIRUBIN,[1],0.2 mg/dL
same,TOTAL PROTEIN,[1],5.6 G/DL
same,URIC ACID,[1],1.37 mg/dL
same,ABSOLUTE BASOPHIL,[2],0 CELLS/uL
same,ABSOLUTE EOSINOPHIL,[2],46 CELLS/uL
same,ABSOLUTE LYMPHOCYTE,[2],12546.67 CELLS/uL
same,ABSOLUTE MONOCYTE,[2],258.67 CELLS/uL
same,ABSOLUTE SEGMENTED NEUTROPHIL,[2],1848.67 CELLS/uL
same,BASOPHIL,[2],0%
same,EOSINOPHIL,[2],0.33%
same,ERYTHROCYTE COUNT,[2],5.18 x10E6/uL
same,HEMATOCRIT,[2],34.3%
same,HEMOGLOBIN,[2],13.77 G/DL
same,LEUKOCYTE COUNT,[2],14.7 x10E3/uL
same,LYMPHOCYTE,[2],85.67%
same,MEAN CORPUSCULAR HEMOGLOBIN,[2],26.7 pg
same,MEAN CORPUSCULAR HEMOGLOBIN CONCENTRATION,[2],40.13 G/DL
same,MEAN CORPUSCULAR VOLUME,[2],66.53 fL
same,MONOCYTE,[2],1.67%
same,NEUTROPHIL,[2],12.33%
same,NUCLEATED RED BLOOD CELLS,[2],0 /100WBC
same,PLATELET COUNT,[2],1368.67 x10E3/uL
same,ALANINE AMINOTRANSFERASE,[2],59 u/L
same,ALBUMIN,[2],4.17 G/DL
same,ALKALINE PHOSPHATASE,[2],468.33 u/L
same,ASPARTATE AMINOTRANSFERASE,[2],97.67 u/L
same,BLOOD UREA NITROGEN,[2],11 mg/dL
same,CARBON DIOXIDE,[2],34.67 mmol/L
same,CHLORIDE,[2],100.67 MEQ/L
same,CHOLESTEROL,[2],60.33 mg/dL
same,CREATINE PHOSPHOKINASE,[2],364.67 u/L
same,CREATININE,[2],0.16 mg/dL
same,GLUCOSE,[2],144 mg/dL
same,LACTATE DEHYDROGENASE,[2],490.67 u/L
same,LIPASE,[2],11 u/L
same,PHOSPHORUS,[2],10.47 mg/dL
same,POTASSIUM,[2],6.4 MEQ/L
same,SODIUM,[2],143.33 MEQ/L
same,TOTAL BILIRUBIN,[2],0.2 mg/dL
same,TOTAL PROTEIN,[2],5.73 G/DL
same,URIC ACID,[2],1.43 mg/dL
same,ABSOLUTE BASOPHIL,[3],0 CELLS/uL
same,ABSOLUTE EOSINOPHIL,[3],0 CELLS/uL
same,ABSOLUTE LYMPHOCYTE,[3],15083 CELLS/uL
same,ABSOLUTE MONOCYTE,[3],294 CELLS/uL
same,ABSOLUTE SEGMENTED NEUTROPHIL,[3],1723 CELLS/uL
same,BASOPHIL,[3],0%
same,EOSINOPHIL,[3],0%
same,ERYTHROCYTE COUNT,[3],6.27 x10E6/uL
same,HEMATOCRIT,[3],39.33%
same,HEMOGLOBIN,[3],15.27 G/DL
same,LEUKOCYTE COUNT,[3],17.1 x10E3/uL
same,LYMPHOCYTE,[3],88.33%
same,MEAN CORPUSCULAR HEMOGLOBIN,[3],24.37 pg
same,MEAN CORPUSCULAR HEMOGLOBIN CONCENTRATION,[3],38.83 G/DL
same,MEAN CORPUSCULAR VOLUME,[3],62.8 fL
same,MONOCYTE,[3],1.67%
same,NEUTROPHIL,[3],10%
same,NUCLEATED RED BLOOD CELLS,[3],0 /100WBC
same,PLATELET COUNT,[3],1017 x10E3/uL
same,ALANINE AMINOTRANSFERASE,[3],109 u/L
same,ALBUMIN,[3],4.4 G/DL
same,ALKALINE PHOSPHATASE,[3],443.33 u/L
same,ASPARTATE AMINOTRANSFERASE,[3],121 u/L
same,BLOOD UREA NITROGEN,[3],11.33 mg/dL
same,CARBON DIOXIDE,[3],27.67 mmol/L
same,CHLORIDE,[3],99.33 MEQ/L
same,CHOLESTEROL,[3],62.33 mg/dL
same,CREATINE PHOSPHOKINASE,[3],782 u/L
same,CREATININE,[3],0.19 mg/dL
same,GLUCOSE,[3],148.33 mg/dL
same,LACTATE DEHYDROGENASE,[3],151.33 u/L
same,LIPASE,[3],11.67 u/L
same,PHOSPHORUS,[3],13.93 mg/dL
same,POTASSIUM,[3],5.57 MEQ/L
same,SODIUM,[3],143.77 MEQ/L
same,TOTAL BILIRUBIN,[3],0.2 mg/dL
same,TOTAL PROTEIN,[3],5.73 G/DL
same,URIC ACID,[3],1 mg/dL
same,ABSOLUTE BASOPHIL,[4],0 CELLS/uL
same,ABSOLUTE EOSINOPHIL,[4],54.67 CELLS/uL
same,ABSOLUTE LYMPHOCYTE,[4],13302.33 CELLS/uL
same,ABSOLUTE MONOCYTE,[4],273 CELLS/uL
same,ABSOLUTE SEGMENTED NEUTROPHIL,[4],1603.33 CELLS/uL
same,BASOPHIL,[4],0%
same,EOSINOPHIL,[4],0.33%
same,ERYTHROCYTE COUNT,[4],6.16 x10E6/uL
same,HEMATOCRIT,[4],38.17%
same,HEMOGLOBIN,[4],14.63 G/DL
same,LEUKOCYTE COUNT,[4],15.23 x10E3/uL
same,LYMPHOCYTE,[4],87.67%
same,MEAN CORPUSCULAR HEMOGLOBIN,[4],23.73 pg
same,MEAN CORPUSCULAR HEMOGLOBIN CONCENTRATION,[4],38.4 G/DL
same,MEAN CORPUSCULAR VOLUME,[4],61.93 fL
same,MONOCYTE,[4],2%
same,NEUTROPHIL,[4],10%
same,NUCLEATED RED BLOOD CELLS,[4],0.33 /100WBC
same,PLATELET COUNT,[4],914.67 x10E3/uL
same,ALANINE AMINOTRANSFERASE,[4],125.67 u/L
same,ALBUMIN,[4],4.53 G/DL
same,ALKALINE PHOSPHATASE,[4],515 u/L
same,ASPARTATE AMINOTRANSFERASE,[4],127.67 u/L
same,BLOOD UREA NITROGEN,[4],18.67 mg/dL
same,CARBON DIOXIDE,[4],29 mmol/L
same,CHLORIDE,[4],103 MEQ/L
same,CHOLESTEROL,[4],65.33 mg/dL
same,CREATINE PHOSPHOKINASE,[4],548 u/L
same,CREATININE,[4],0.23 mg/dL
same,GLUCOSE,[4],140.67 mg/dL
same,LACTATE DEHYDROGENASE,[4],324.33 u/L
same,LIPASE,[4],11 u/L
same,PHOSPHORUS,[4],13.1 mg/dL
same,POTASSIUM,[4],5.71 MEQ/L
same,SODIUM,[4],146.3 MEQ/L
same,TOTAL BILIRUBIN,[4],0.27 mg/dL
same,TOTAL PROTEIN,[4],5.97 G/DL
same,URIC ACID,[4],0.9 mg/dL

# Reference: ChEMBL document CHEMBL3885881, “DrugMatrix”
